Results taken from PubChem BioAssay AID330 (DTP/NCI, 2004).
Values joined by “and” are separate entries in the source; they are usually repeats but may differ in a detail not shown here. Identical values can stand only once. Toxic doses and inconclusive results are not listed. Peptide text beside a SMILES is read from it. * marks the point of attachment. Cbz = O=C(OCc1ccccc1)*; Bn = c1ccc(C*)cc1

System: P388 leukemia ip, CD2F1 mice, survival T/C
Assay: NCI In Vivo Anticancer Drug Screen. Data for tumor model P388 Leukemia (intraperitoneal) in CD2F1 (CDF1) mice
Conditions: endpoint: median survival time, higher = longer survival
Procedure, shortened: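 Mice carrying the transplanted tumor received test compound or vehicle. Survival was recorded in each group, and the value is the treated-group measurement divided by that of the vehicle-treated control group.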

[1] = dose: 50.0 mg/kg/injection, schedule: Q01DX005 (ip), vehicle: Klucel (hydroxypropylcellulose) (HPC)
[2] = dose: 100.0 mg/kg/injection, schedule: Q01DX005 (ip), vehicle: Klucel (hydroxypropylcellulose) (HPC)
[3] = dose: 200.0 mg/kg/injection, schedule: Q01DX005 (ip), vehicle: Klucel (hydroxypropylcellulose) (HPC)
[4] = dose: 50.0 mg/kg/injection, schedule: Q01DX009 (ip), vehicle: saline with Tween-80
[5] = dose: 100.0 mg/kg/injection, schedule: Q01DX009 (ip), vehicle: saline with Tween-80
[6] = dose: 200.0 mg/kg/injection, schedule: Q01DX009 (ip), vehicle: saline with Tween-80

In the case of `COC1CC(N)C(OS(C)(=O)=O)C(C)O1` (configuration not stated), the T/C (dose: 12.5 mg/kg/injection, schedule: Q04DX003 (ip), vehicle: water) is reported as 99 % of control, the T/C (dose: 25.0 mg/kg/injection, schedule: Q04DX003 (ip), vehicle: water) is reported as 99 % of control and the T/C (dose: 50.0 mg/kg/injection, schedule: Q04DX003 (ip), vehicle: water) is reported as 114 % of control. The T/C (dose: 100.0 mg/kg/injection, schedule: Q04DX003 (ip), vehicle: water) was 114 % of control and the T/C (dose: 200.0 mg/kg/injection, schedule: Q04DX003 (ip), vehicle: water) was 105 % of control.
`CC(OCc1ccccc1)C(NC(=O)OC(C)(C)C)C(=O)ON1C(=O)CCC1=O` (configuration not stated) was tested, and the T/C [1] was 109 % of control, the T/C [2] was 105 % of control and the T/C [3] was 96 % of control.
With `OCCn1nc2c(c1-c1ccncc1)CCCc1ccccc1-2` the T/C (dose: 100.0 mg/kg/injection, schedule: Q04DX002 (ip), vehicle: saline with Tween-80) was 97 % of control, the T/C (dose: 200.0 mg/kg/injection, schedule: Q04DX002 (ip), vehicle: saline with Tween-80) was 94 % of control and the T/C (dose: 400.0 mg/kg/injection, schedule: Q04DX002 (ip), vehicle: saline with Tween-80) was 94 % of control.
With `CCCN(CCC)C(=O)C(c1ccccc1)C(O)(c1ccccc1)c1ccccc1` (configuration not stated) the T/C [1] was 100 % of control, the T/C [2] was 95 % of control and the T/C [3] was 92 % of control.
`C=C1C(O)C2(O)OCC34C(CC5C(C)=CC(=O)C(O)C5(C)C23)OC(=O)C(OC(=O)C/C=C/CCCCCCCC)C14` (configuration not stated) was tested, and the T/C (dose: 2.0 mg/kg/injection, schedule: Q01DX005 (ip), vehicle: saline + alcohol) was 151 % of control, the T/C (dose: 4.0 mg/kg/injection, schedule: Q01DX005 (ip), vehicle: saline + alcohol) was 151 % of control and 156 % of control and the T/C (dose: 8.0 mg/kg/injection, schedule: Q01DX005 (ip), vehicle: saline + alcohol) was 198 % of control. The T/C (dose: 16.0 mg/kg/injection, schedule: Q01DX005 (ip), vehicle: saline + alcohol) was 205 % of control.
In the case of `O=C1C(Cl)=CC(=NS(=O)(=O)c2ccccc2)C=C1Cl`, the T/C (dose: 3.13 mg/kg/injection, schedule: Q01DX009 (ip), vehicle: saline with Tween-80) is reported as 100 % of control, the T/C (dose: 6.25 mg/kg/injection, schedule: Q01DX009 (ip), vehicle: saline with Tween-80) is reported as 105 % of control and the T/C (dose: 6.25 mg/kg/injection, schedule: Q04DX003 (ip), vehicle: saline with Tween-80) is reported as 95 % of control. The T/C (dose: 12.5 mg/kg/injection, schedule: Q01DX009 (ip), vehicle: saline with Tween-80) was 120 % of control.
`COc1ccc2c(c1OC)C(OC)OC(c1cc3c(cc1CCN(C)C)OCO3)C2` (configuration not stated) was tested, and the T/C (dose: 12.5 mg/kg/injection, schedule: Q01DX001 (ip), vehicle: saline + alcohol) was 91 % of control, the T/C (dose: 25.0 mg/kg/injection, schedule: Q01DX001 (ip), vehicle: saline + alcohol) was 88 % of control and the T/C (dose: 50.0 mg/kg/injection, schedule: Q01DX001 (ip), vehicle: saline + alcohol) was 91 % of control.
For `CC(C)[S][Pb]([c]1ccccc1)([c]1ccccc1)[c]1ccccc1`, the T/C (dose: 1.25 mg/kg/injection, schedule: Q01DX009 (ip), vehicle: gum acacia) was 116 % of control, the T/C (dose: 2.5 mg/kg/injection, schedule: Q01DX009 (ip), vehicle: gum acacia) was 118 % of control and the T/C (dose: 5.0 mg/kg/injection, schedule: Q01DX009 (ip), vehicle: gum acacia) was 111 % of control. The T/C (dose: 6.25 mg/kg/injection, schedule: Q04DX003 (ip), vehicle: gum acacia) was 97 % of control and the T/C (dose: 12.5 mg/kg/injection, schedule: Q04DX003 (ip), vehicle: gum acacia) was 104 % of control.
`CCOC(=O)C1=C(c2ccccc2)SC(c2ccccc2)N(C(C)C)C1=O` (configuration not stated) was tested, and the T/C (dose: 25.0 mg/kg/injection, schedule: Q01DX009 (ip), vehicle: saline with Tween-80) was 106 % of control, the T/C [4] was 107 % of control and the T/C [5] was 100 % of control.
With `O=C1c2ccccc2OCC1CS(=O)(=O)CC1COc2ccccc2C1=O` (configuration not stated) the T/C (dose: 100.0 mg/kg/injection, schedule: Q04DX003 (ip), vehicle: saline) was 98 % of control, the T/C (dose: 200.0 mg/kg/injection, schedule: Q04DX003 (ip), vehicle: saline) was 97 % of control and the T/C (dose: 400.0 mg/kg/injection, schedule: Q04DX003 (ip), vehicle: saline) was 91 % of control.
For `O=C(O)C(S)C(S)C(=O)O` (configuration not stated), the T/C (dose: 12.5 mg/kg/injection, schedule: Q01DX009 (ip), vehicle: other) was 102 % of control, the T/C (dose: 25.0 mg/kg/injection, schedule: Q01DX009 (ip), vehicle: other) was 108 % of control and the T/C (dose: 50.0 mg/kg/injection, schedule: Q01DX009 (ip), vehicle: other) was 103 % of control. The T/C (dose: 100.0 mg/kg/injection, schedule: Q01DX009 (ip), vehicle: other) was 94 % of control and the T/C (dose: 200.0 mg/kg/injection, schedule: Q01DX009 (ip), vehicle: other) was 90 % of control.
For `CCOC(=O)C1=C(C)NC(=O)NC1c1coc2cc(C)cc(C)c2c1=O` (configuration not stated), the T/C (dose: 12.5 mg/kg/injection, schedule: Q01DX005 (ip), vehicle: Klucel (hydroxypropylcellulose) (HPC)) was 86 % of control, the T/C (dose: 25.0 mg/kg/injection, schedule: Q01DX005 (ip), vehicle: Klucel (hydroxypropylcellulose) (HPC)) was 91 % of control and the T/C [1] was 98 % of control and 96 % of control.
For `CCOC(=O)CNC(=O)C(CSCc1ccccc1)NC(=O)C(NC(=O)OCc1ccccc1)C(C)C` (stereo not drawn) (Cbz-Val-Cys(Bn)-Gly-OEt; configuration not given here), the T/C [1] was 98 % of control, the T/C [2] was 100 % of control and the T/C [3] was 88 % of control.
In the case of `CC(=O)OC1CC(O)C23COC(O)C1C2CC(O)C1(C)C3C(=O)CC2(C)C(c3ccoc3)CC3OC321` (configuration not stated), the T/C (dose: 0.25 mg/kg/injection, schedule: Q01DX009 (ip), vehicle: Klucel (hydroxypropylcellulose) (HPC)) is reported as 103 % of control, the T/C (dose: 0.5 mg/kg/injection, schedule: Q01DX009 (ip), vehicle: Klucel (hydroxypropylcellulose) (HPC)) is reported as 99 % of control and the T/C (dose: 1.0 mg/kg/injection, schedule: Q01DX009 (ip), vehicle: Klucel (hydroxypropylcellulose) (HPC)) is reported as 111 % of control. For the same compound, the T/C (dose: 2.0 mg/kg/injection, schedule: Q01DX009 (ip), vehicle: Klucel (hydroxypropylcellulose) (HPC)) was 90 % of control.
`COc1ccc(CSC2=C(C#N)C(=O)NC3(CCCCC3)S2)cc1` was tested, and the T/C [4] was 112 % of control, the T/C [5] was 95 % of control and the T/C [6] was 97 % of control.
With `O=[N+]([O-])c1ccc(N2CCN(CCO)CC2)c2c1no[n+]2[O-]` the T/C (dose: 3.75 mg/kg/injection, schedule: Q01DX009 (ip), vehicle: saline) was 98 % of control and 100 % of control and 86 % of control, the T/C (dose: 7.5 mg/kg/injection, schedule: Q01DX009 (ip), vehicle: saline) was 100 % of control and 97 % of control and the T/C (dose: 15.0 mg/kg/injection, schedule: Q01DX009 (ip), vehicle: saline) was 103 % of control (2×) and 90 % of control. The T/C (dose: 30.0 mg/kg/injection, schedule: Q01DX009 (ip), vehicle: saline) was 100 % of control and 101 % of control and 95 % of control and the T/C (dose: 50.0 mg/kg/injection, schedule: Q01DX009 (ip), vehicle: suspension in saline) was 109 % of control.
For `O=NN(CCCl)C(=O)OCC(Cl)(Cl)Cl`, the T/C (dose: 3.12 mg/kg/injection, schedule: Q01DX001 (ip), vehicle: saline with Tween-80) was 104 % of control, the T/C (dose: 6.25 mg/kg/injection, schedule: Q01DX001 (ip), vehicle: saline with Tween-80) was 101 % of control and the T/C (dose: 12.5 mg/kg/injection, schedule: Q01DX001 (ip), vehicle: saline with Tween-80) was 113 % of control. The T/C (dose: 25.0 mg/kg/injection, schedule: Q01DX001 (ip), vehicle: saline with Tween-80) was 113 % of control and 117 % of control and 119 % of control, the T/C (dose: 50.0 mg/kg/injection, schedule: Q01DX001 (ip), vehicle: saline with Tween-80) was 105 % of control and 120 % of control and 123 % of control and the T/C (dose: 100.0 mg/kg/injection, schedule: Q01DX001 (ip), vehicle: saline with Tween-80) was 88 % of control.
With `O=c1cc(O)n(-c2ccccc2)c(=O)n1-c1ccccc1` the T/C (dose: 75.0 mg/kg/injection, schedule: Q01DX009 (ip), vehicle: saline with Tween-80) was 102 % of control, the T/C (dose: 150.0 mg/kg/injection, schedule: Q01DX009 (ip), vehicle: saline with Tween-80) was 100 % of control and the T/C (dose: 300.0 mg/kg/injection, schedule: Q01DX009 (ip), vehicle: saline with Tween-80) was 100 % of control.
`CCS(=O)(=O)C(=O)N1CCN(C(=O)S(=O)(=O)CC)CC1` was tested, and the T/C (dose: 50.0 mg/kg/injection, schedule: Q01DX009 (ip), vehicle: Klucel (hydroxypropylcellulose) (HPC)) was 98 % of control, the T/C (dose: 100.0 mg/kg/injection, schedule: Q01DX009 (ip), vehicle: Klucel (hydroxypropylcellulose) (HPC)) was 100 % of control and the T/C (dose: 200.0 mg/kg/injection, schedule: Q01DX009 (ip), vehicle: Klucel (hydroxypropylcellulose) (HPC)) was 106 % of control.
With `C[CH2][Sn]([Cl])([Cl])[CH2]C.c1ccc2nc(-c3ccc4ccccc4n3)ccc2c1` the T/C (dose: 60.0 mg/kg/injection, schedule: Q01DX005 (ip), vehicle: Klucel (hydroxypropylcellulose) (HPC)) was 106 % of control, the T/C (dose: 120.0 mg/kg/injection, schedule: Q01DX005 (ip), vehicle: Klucel (hydroxypropylcellulose) (HPC)) was 106 % of control and the T/C (dose: 240.0 mg/kg/injection, schedule: Q01DX005 (ip), vehicle: Klucel (hydroxypropylcellulose) (HPC)) was 103 % of control.
With `Oc1ccccc1CNc1ncc(Cl)cc1Cl` the T/C [4] was 100 % of control, the T/C [5] was 88 % of control and the T/C [6] was 94 % of control.
